Data from patent US20140107109A1, “AMINO-DIHYDROTHIAZINE AND AMINO-DIOXIDO DIHYDROTHIAZINE COMPOUNDS AS BETA-SECRETASE ANTAGONISTS AND METHODS OF USE” (Amgen Inc., priority 2012, published 2014).

What was measured:
[1] = biological target: Beta Secretase enzyme (BACE1) (Homo sapiens, UniProt P56817); test: In vitro enzymatic BACE FRET assay; type: biochemical; settings: read-out: BACE1 FRET assay IC50
Description: In Vitro Enzymatic BACE FRET (Fluorescence Resonance Energy Transfer) Assay (Enzyme Assay Data in the Example Tables I and II)
The assay buffer used in this screen is 0.05 M acetate, pH 4.2, 10% DMSO final, 100 uM genapol (which is a nonionic detergent, below its Critical Micelle Concentration). […] This assay is effectively started by the addition of FRET substrate (50 nM) and the combination is incubated for one hour. The FRET assay is terminated with by addition of Tris buffer, which raises the pH to neutrality, and the fluorescence is determined. The FRET substrate is a peptide with commercially available fluorophore and quencher, on opposite sides of the BACE cleavage site. Proteolytic cleavage of the FRET substrate releases quenching of fluorescence (excitation […] and […]).

[2] = system: Aβ40 in conditioned medium of cells stably expressing Amyloid Precursor Protein (APP); test: In vitro BACE cell-based assay (HEK cell assay), Aβ40 sandwich ELISA; settings: Homo sapiens, HEK293; Aβ40, 24 h incubation
Description: In Vitro BACE Cell-Based Assay
The cell-based assay measures inhibition or reduction of Aβ40 in conditioned medium of test compound treated cells expressing amyloid precursor protein.
Cells stably expressing Amyloid Precursor Protein (APP) were plated at a density of 40K cells/well in 96 well plates (Costar). The cells were cultivated for 24 hours at 37C. and 5% CO2 in DMEM supplemented with 10% FBS. The test compounds were then added to cells in 10-point dose response concentrations with the starting concentration being either 100 μM or 10 μM. The compounds were diluted from stock solutions in DMSO and the final DMSO concentration of the test compounds on cells was 0.1%. After 24 h of incubation with the test compounds the supernatant conditioned media was collected and the Aβ 40 levels were determined using a sandwich ELISA. The IC50 of the compound was calculated from the percent of control or percent inhibition of Aβ 40 as a function of the concentration of the test compound.
The sandwich ELISA to detect Aβ 40 was performed in 96 well microtiter plates, which were pre-treated with goat anti-rabbit IgG (Pierce). The capture and detecting antibody pair that were used to detect Aβ 40 from cell supernatants were affinity purified pAb40 (Biosource) and biotinylated 6E10 (Signet Labs Inc.), respectively. The optimal concentration for the pAb40 antibody was 3 μg/ml in Superblock/TBS (Pierce) that was supplemented with 0.05% Tween 20 (Sigma). Optimal concentration for the detection antibody 6E10-biotinylated was 0.5 μg/ml in Superblock/TBS (Pierce) that had been supplemented with 2% normal goat serum and 2% normal mouse serum.
Cellular supernatants were incubated with the capture antibody for 3 h at 4° C., followed by 3 wash steps in TBS-tween (0.05%). The detecting antibody incubation was for 2 h at 4° C., again followed by the wash steps as described previously. The final readout of the ELISA is Time-Resolved Fluorescence (counts per minute) using Delfia reagents Streptavidin-Europium and Enhancement solutions (Perkin Elmer) and the Victor 2 multilabel counter (Perkin Elmer).

[3] = biological target: T1, Cathepsin D (Cat D) (Homo sapiens, UniProt P07339); test: In vitro enzymatic Cathepsin D (Cat D) FRET assay; type: biochemical; settings: read-out: CatD IC50
T1 construct: Recombinant Cat D was expressed in CHO cells; made in house; host or cells: CHO cells
T1 sequence (P07339 65-412, species assumed): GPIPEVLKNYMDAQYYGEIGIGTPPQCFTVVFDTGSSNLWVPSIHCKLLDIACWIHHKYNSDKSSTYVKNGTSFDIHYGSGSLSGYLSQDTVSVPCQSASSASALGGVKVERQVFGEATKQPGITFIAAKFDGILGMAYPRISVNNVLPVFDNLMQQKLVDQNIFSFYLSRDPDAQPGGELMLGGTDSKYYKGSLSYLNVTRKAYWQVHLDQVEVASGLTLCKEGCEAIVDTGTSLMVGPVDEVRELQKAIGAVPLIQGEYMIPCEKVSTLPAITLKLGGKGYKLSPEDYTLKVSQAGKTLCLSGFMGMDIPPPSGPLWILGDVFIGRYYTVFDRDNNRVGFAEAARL
Description: In Vitro Enzymatic Cathepsin D (Cat D) FRET (Fluorescence Resonance Energy Transfer) Assay Recombinant Cat D was expressed in CHO cells. […] The Cat D enzyme (9 nM) is pre-incubated for one hour with inhibitors, typically in about 1 uL of DMSO according to a serial dilution, is added thereto. […] The FRET assay is terminated with by addition of Tris buffer, which raises the pH to neutrality, and the fluorescence is determined. The FRET substrate is a peptide with commercially available fluorophore and quencher, on opposite sides of the BACE cleavage site. The Cat D substrate peptide sequence is based on sequence #1 of Table 1 from Gulnik et al. […] Alternatively, a Cat D assay may also be run according to the procedure described in the article, Characterization of new fluorgenic substrates for the rapid and sensitive assay of cathepsin E and cathepsin D, J. Biochem., 125:1137, 1999. In addition, the cathepsin D and cathepsin E assays are described in PCT publication WO2011069934. This WIPO publication describes BACE inhibitor compounds having an amide linker connecting two aromatic groups with extremely poor cathepsin D and/or cathepsin E inhibitory activity (see Table 2). Where available, the in-vitro Cat D FRET assay data for each of the Examples, conducted by the first procedure, is provided.

Chain of Beta Secretase enzyme (BACE1) (P56817 46-501): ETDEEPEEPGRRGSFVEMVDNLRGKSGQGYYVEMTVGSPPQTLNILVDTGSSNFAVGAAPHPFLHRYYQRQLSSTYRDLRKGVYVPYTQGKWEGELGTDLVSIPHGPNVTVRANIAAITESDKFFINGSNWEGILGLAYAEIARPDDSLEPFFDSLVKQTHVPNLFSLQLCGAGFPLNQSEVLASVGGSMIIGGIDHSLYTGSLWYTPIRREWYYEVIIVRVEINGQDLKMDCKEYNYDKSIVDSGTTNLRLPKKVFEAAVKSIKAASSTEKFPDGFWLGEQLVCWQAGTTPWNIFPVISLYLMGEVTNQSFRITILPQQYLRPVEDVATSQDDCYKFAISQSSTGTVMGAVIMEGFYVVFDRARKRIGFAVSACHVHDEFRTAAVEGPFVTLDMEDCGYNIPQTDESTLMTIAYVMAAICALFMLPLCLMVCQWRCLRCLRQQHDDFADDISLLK

## COc1ccc(C(=O)Nc2ccc(F)c([C@]3(C)CS(=O)(=O)C(C)(C)C(N)=N3)c2)nc1 [Example 22, N-(3-((3R)-5-amino-3,6,6-trimethyl-1,1-dioxido-3,6-dihydro-2H-1,4-thiazin-3-yl)-4-fluorophenyl)-5-methoxy-2-pyridinecarboxamide]
[1]
  IC50: 1.5 nM
[2]
  IC50: 3.1 nM
[3]
  IC50: > 400000 nM

## CC1(C)C(N)=N[C@](C)(c2cc(NC(=O)c3ccc(C#N)cn3)ccc2F)CS1(=O)=O [Example 23, N-(3-((3R)-5-amino-3,6,6-trimethyl-1,1-dioxido-3,6-dihydro-2H-1,4-thiazin-3-yl)-4-fluorophenyl)-5-cyano-2-pyridinecarboxamide]
[1]
  IC50: 2.7 nM
[2]
  IC50: 2.7 nM
[3]
  IC50: 617000 nM

## CC1(C)C(N)=N[C@](C)(c2cc(NC(=O)c3ncc(Cl)cc3F)ccc2F)CS1(=O)=O [Example 24, N-(3-((3R)-5-amino-3,6,6-trimethyl-1,1-dioxido-3,6-dihydro-2H-1,4-thiazin-3-yl)-4-fluorophenyl)-5-chloro-3-fluoro-2-pyridinecarboxamide]
[1]
  IC50: 0.6 nM
[2]
  IC50: 3.7 nM
[3]
  IC50: > 400000 nM

## Cc1cc(Cl)cnc1C(=O)Nc1ccc(F)c([C@]2(C)CS(=O)(=O)C(C)(C)C(N)=N2)c1 [Example 25, N-(3-((3R)-5-amino-3,6,6-trimethyl-1,1-dioxido-3,6-dihydro-2H-1,4-thiazin-3-yl)-4-fluorophenyl)-5-chloro-3-methyl-2-pyridinecarboxamide]
[1]
  IC50: 0.3 nM
[2]
  IC50: 3.2 nM
[3]
  IC50: 263000 nM

## CC#CCOc1cnc(C(=O)Nc2ccc(F)c([C@]3(C)CS(=O)(=O)C(C)(C)C(N)=N3)c2)cn1 [Example 26, N-(3-((3R)-5-amino-3,6,6-trimethyl-1,1-dioxido-3,6-dihydro-2H-1,4-thiazin-3-yl)-4-fluorophenyl)-5-(2-butyn-1-yloxy)-2-pyrazinecarboxamide]
[1]
  IC50: 0.4 nM
[2]
  IC50: 0.05 nM
[3]
  IC50: 475000 nM

## Cc1nc(C(=O)Nc2ccc(F)c([C@]3(C)CS(=O)(=O)C(C)(C)C(N)=N3)c2)cs1 [Example 27, N-(3-((3R)-5-amino-3,6,6-trimethyl-1,1-dioxido-3,6-dihydro-2H-1,4-thiazin-3-yl)-4-fluorophenyl)-2-methyl-1,3-thiazole-4-carboxamide]
[1]
  IC50: 51 nM
[2]
  IC50: 60.9 nM
[3]
  IC50: > 400000 nM

## COc1cnc(C(=O)Nc2ccc(F)c([C@]3(C)CS(=O)(=O)CC(N)=N3)c2)cn1 [Example 28, N-(3-((3R)-5-amino-3-methyl-1,1-dioxido-3,6-dihydro-2H-1,4-thiazin-3-yl)-4-fluorophenyl)-5-methoxy-2-pyrazinecarboxamide]
[1]
  IC50: 14.9 nM
[2]
  IC50: 68 nM
[3]
  IC50: 50900 nM

## C[C@@]1(c2cc(NC(=O)c3ccc(Cl)cn3)ccc2F)CS(=O)(=O)CC(N)=N1 [Example 29, N-(3-((3R)-5-amino-3-methyl-1,1-dioxido-3,6-dihydro-2H-1,4-thiazin-3-yl)-4-fluorophenyl)-5-chloro-2-pyridinecarboxamide]
[1]
  IC50: 6 nM
[2]
  IC50: 10.8 nM
[3]
  IC50: 118000 nM

## COc1cnc(C(=O)Nc2ccc(F)c([C@]3(C)CS(=O)(=O)[C@@](C)(F)C(N)=N3)c2)cn1 [Example 30, N-(3-((3R,6R)-5-amino-6-fluoro-3,6-dimethyl-1,1-dioxido-3,6-dihydro-2H-1,4-thiazin-3-yl)-4-fluorophenyl)-5-methoxy-2-pyrazinecarboxamide]
[1]
  IC50: 3.1 nM
[2]
  IC50: 80.1 nM
[3]
  IC50: > 400000 nM

## COc1cnc(C(=O)Nc2ccc(F)c(C3(CF)CS(=O)(=O)C(C)(C)C(N)=N3)c2)cn1 (stereo not drawn) [Example 31, N-(3-(-5-amino-3-(fluoromethyl)-6,6-dimethyl-1,1-dioxido-3,6-dihydro-2H-1,4-thiazin-3-yl)-4-fluorophenyl)-5-methoxy-2-pyrazinecarboxamide]
[1]
  IC50: 3.8 nM
[2]
  IC50: 27.9 nM
[3]
  IC50: > 400000 nM

## COc1cnc(C(=O)Nc2ccc(F)c(C3(C(F)F)CS(=O)(=O)C(C)(C)C(N)=N3)c2)cn1 (stereo not drawn) [Example 32, N-(3-(-5-amino-3-(difluoromethyl)-6,6-dimethyl-1,1-dioxido-3,6-dihydro-2H-1,4-thiazin-3-yl)-4-fluorophenyl)-5-methoxy-2-pyrazinecarboxamide]
[1]
  IC50: 53.1 nM
[2]
  IC50: 1420 nM
[3]
  IC50: > 400000 nM

## CC1(c2cc(NC(=O)c3ccc(Cl)cn3)cc(F)c2F)CS(=O)(=O)C(C)(C)C(N)=N1 (stereo not drawn) [Example 35, N-(3-(-5-amino-3,6,6-trimethyl-1,1-dioxido-3,6-dihydro-2H-1,4-thiazin-3-yl)-4,5-difluorophenyl)-5-chloro-2-pyridinecarboxamide]
[1]
  IC50: 2.7 nM
[2]
  IC50: 12.2 nM
[3]
  IC50: 99800 nM

## COc1cnc(C(=O)Nc2ccc(F)c([C@]3(C(F)F)CS(=O)(=O)C(C)(C)C(N)=N3)c2)cn1 [Example 36, (S)—N-(3-(5-amino-3-(difluoromethyl)-6,6-dimethyl-1,1-dioxido-3,6-dihydro-2H-1,4-thiazin-3-yl)-4-fluorophenyl)-5-methoxypyrazine-2-carboxamide]
[1]
  IC50: 20.2 nM
[2]
  IC50: 765 nM
[3]
  IC50: > 400000 nM

## CC1(C)C(N)=N[C@](C)(c2cc(NC(=O)c3ccc(Cl)cn3)cc(F)c2F)CS1(=O)=O [Example 38, (R)—N-(3-(5-amino-3,6,6-trimethyl-1,1-dioxido-3,6-dihydro-2H-1,4-thiazin-3-yl)-4,5-difluorophenyl)-5-chloropicolinamide]
[1]
  IC50: 1 nM
[2]
  IC50: 6.5 nM
[3]
  IC50: 72800 nM

## CC1(C)C(N)=N[C@@](C)(c2cc(NC(=O)c3ccc(Cl)cn3)cc(F)c2F)CS1(=O)=O [Example 39, (S)—N-(3-(5-amino-3,6,6-trimethyl-1,1-dioxido-3,6-dihydro-2H-1,4-thiazin-3-yl)-4,5-difluorophenyl)-5-chloropicolinamide]
[1]
  IC50: 1180 nM
[2]
  IC50: 3270 nM
[3]
  IC50: 225000 nM

## COc1cnc(C(=O)Nc2ccc(F)c([C@]3(C)CS(=O)(=O)C(C)(C)C(N)=N3)n2)cn1 [Example 40, (R)—N-(6-(5-amino-3,6,6-trimethyl-1,1-dioxido-3,6-dihydro-2H-1,4-thiazin-3-yl)-5-fluoropyridin-2-yl)-5-methoxypyrazine-2-carboxamide]
[1]
  IC50: 8200 nM
[2]
  IC50: 6980 nM
[3]
  IC50: > 400000 nM

## COc1cnc(C(=O)Nc2cc(C3(C)CS(=O)(=O)C(C)(C)C(N)=N3)c(F)cn2)cn1 (stereo not drawn) [Example 41, N-(4-(5-amino-3,6,6-trimethyl-1,1-dioxido-3,6-dihydro-2H-1,4-thiazin-3-yl)-5-fluoropyridin-2-yl)-5-methoxypyrazine-2-carboxamide]
[1]
  IC50: 252 nM
[2]
  IC50: 935 nM
[3]
  IC50: 333000 nM

## COc1cnc2c(Nc3ccc(F)c([C@@]4(C)N=C(N)C(C)(C)S(=O)(=O)[C@@H]4F)c3)nccc2c1 [Example 44, (2S,3R)-5-Amino-2-fluoro-3-(2-fluoro-5-((3-methoxy-1,7-naphthyridin-8-yl)amino)phenyl)-3,6,6-trimethyl-3,6-dihydro-2H-1,4-thiazine 1,1-dioxide]
[1]
  IC50: 9.9 nM
[2]
  IC50: 60.4 nM
[3]
  IC50: 357000 nM
